Measurements as given in US6689811B2, “Method of using caffeic acid phenethyl ester and analogs thereof as radiation sensitizers” (Wake Forest University, priority 2001, dated 2004).

What was measured:
[1] = system: Akt phosphorylation (Akt-Pser473); assay: Akt phosphorylation immunoblot in RKO cells treated with CAPE; type: cell-based
Description: RKO cells were treated with low serum (LS) (0.1%) for 12 h, or low serum for 12 h followed by replacement of media with 10% serum (LS+S), in the absence (EtOH) or presence of CAPE. Two different exposures (light, dark) of the immunoblot using the anti-phosphoAkt specific antibody are shown.
(§1) 35(9): p. 790; Giri, D. and M. Ittmann, Hum Pathol, 1999. 30(4): p. 419-24; Davies, M. A., et al., Cancer Res, 1999. 59(11): p. 2551-6). Since PTEN is mutated in PC-3 cells, Akt phosphorylation levels are elevated compared to normal prostatic cells, and therefore PC-3 cells are a good model to study the regulation of Akt by CAPE and propolis.
Since Akt phosphorylation levels reflect a balance between active phosphorylation (mainly by PI-3 kinase) and dephosphorylation (by a yet unidentified phosphatase), the decrease in Akt phosphorylation could be an activation of a phosphatase rather than inhibition of a kinase. […] Thus, we performed CAPE treatments in the presence of high (10%) and low (0.1%) serum levels.

[2] = system: Akt phosphorylation (Akt-Pser473); assay: Akt phosphorylation immunoblot in PC-3 cells treated with CAPE; type: cell-based
Description: as §1

[3] = system: RKO cells; assay: Clonogenic survival assay with CAPE and ionizing radiation, RKO cells; type: cell-based
Description: (§2) FIGS. 2A-B are graphs illustrating that CAPE sensitizes colorectal carcinoma cells RKO (A) and HT-29 cells (B) to treatments with IR. RKO (A) and HT-29 (B) cells were treated with CAPE (5 μg/ml) for the indicated times, irradiated and plated for clonogenic survival assays. CAPE treatment alone induced 10-20% reduction in clonogenic survival. Results are normalized to account for this reduction. We have also tested the ability of CAPE to sensitize cells to the cytotoxic effects of ionizing radiation. […] The Dose-enhancement ratio (DER) values at survival fraction (SF) 0.1 for pretreatment with CAPE for 24 h were 1.81 for RKO cells and a 1.68 for HT-29 cells. The radiosensitizing effect of CAPE was even more pronounced in vivo.

[4] = system: HT-29 cells; assay: Clonogenic survival assay with CAPE and ionizing radiation, HT-29 cells; type: cell-based
Description: as §2

[5] = system: HT-29 xenograft tumors; assay: HT-29 tumor xenografts on the flanks of nude mice, CAPE with or without IR; type: in vivo
Description: FIG. 3 is a photograph showing representative animals where CAPE radiosensitizes HT-29 xenograft tumors to IR. HT-29 cells were grown as tumor xenografts on the flanks of nude mice. When the tumors reached approximately 80 mm^3, one group of mice was treated with 0.5 ml of ethanol (EtOH) (0.1%) while the other group was treated with a single injection of CAPE (100 μg/kg). Twenty-four hours later, the tumors on the left flanks were given a single dose of IR (5 Gy). The animals were returned to their cages and tumor measurements were taken every 7 days for the following 4 weeks. The animal on the left was treated with ethanol (EtOH) (the carrier for CAPE), while the animal on the right was treated with 50 mg/kg CAPE. The tumors on the left side of the animal (right side of the picture) was treated with ionizing radiation (IR) (5Gy). Pictures were taken 4 weeks following IR. FIG. 4 is graphical representation of results from all tumors. Control (N=7), CAPE (N=5), IR (N=6) and CAPE +IR (N=4). Error bars represent ±S.E.M. The different number of tumors measured reflects the failure of some of the tumors to grow during the first week prior to treatment. FIG. 5 is a bar graph illustrating the number of days required for a tumor to triple in volume. […] FIG. 4 illustrates that tumors treated with both CAPE and IR were reduced in size by approximately 90% 4 weeks after treatment.

[6] = system: colorectal carcinoma cells; assay: Survival fraction of colorectal carcinoma cells, oxaliplatin versus CAPE and oxaliplatin; type: cell-based; settings: regimen of CAPE and oxaliplatin compared to oxaliplatin alone (FIG. 6)
Description: FIG. 6 is a graph depicting the survival fraction of colorectal carcinoma cells when the cells are given a regimen of oxaliplatin as compared to a regimen of CAPE and oxaliplatin. As stated above, CAPE may be combined with other cancer therapies. One such therapy includes the use of oxaliplatin. Oxaliplatin is a chemotherapy drug, and also an antineoplastic agent, that is generally used in late-stage clinical development for colorectal cancer. Oxaliplatin is a platinum chemotherapy drug, similar to cisplatin and carboplatin. At the center of the drug molecule is an atom of platinum. Oxaliplatin is generally a clear liquid that is given through a drip into a vein (intravenous infusion). The infusion usually takes about 2 hours. Oxaliplatin can be given every 2 weeks or every 3 weeks as a course of treatment.

[7] = immunoblot with anti-Akt antibody (FIG. 1A)
[8] = increasing doses of CAPE, immunoblot (FIG. 1A)
[9] = pretreatment with CAPE for 24 h (5 μg/ml), then IR

## O=C(/C=C/c1ccc(O)c(O)c1)OCCc1ccccc1 [CAPE, caffeic acid phenethyl ester]
[1]; [7]
  levels of Akt (anti-Akt antibody): remain unchanged
[1]; [8]
  levels of Akt phosphorylation (Akt-Pser473): reduces the levels of Akt phosphorylation
[1]; low serum 12 h then 10% serum, in presence of CAPE (FIG. 1B)
  rephosphorylation of Akt when serum was added back: did not inhibit rephosphorylation of Akt
[1]; low serum (0.1%) for 12 h plus CAPE (FIG. 1B)
  Akt phosphorylation with CAPE in low serum: undetectable levels
[2]; [7]
  levels of Akt (anti-Akt antibody): remain unchanged
[2]; [8]
  levels of Akt phosphorylation (Akt-Pser473): reduces the levels of Akt phosphorylation
[3]; CAPE 5 μg/ml, no IR
  reduction in clonogenic survival by CAPE treatment alone: 10-20%
[3]; pretreatment with CAPE for 12 h or 24 h (FIG. 2A)
  sensitization to IR treatments: significant sensitization
[3]; [9]
  Dose-enhancement ratio (DER) at survival fraction (SF) 0.1: 1.81
[4]; CAPE 5 μg/ml, no IR
  reduction in clonogenic survival by CAPE treatment alone: 10-20%
[4]; pretreatment with CAPE for 12 h or 24 h (FIG. 2B)
  sensitization to IR treatments: significant sensitization
[4]; [9]
  Dose-enhancement ratio (DER) at survival fraction (SF) 0.1: 1.68
[5]; CAPE combined with IR (FIG. 5)
  number of days required for tumor to triple in volume, CAPE plus IR: failed to triple in volume
[5]; single dose (50 mg/kg) CAPE, no IR, HT-29 xenografts in nude mice
  effect on tumor growth, CAPE alone: minimal effect on tumor growth
[5]; single injection of CAPE, IR 5 Gy 24 h later, 4 weeks after treatment (FIG. 4)
  reduction in tumor size, CAPE and IR: approximately 90%
[6]
  survival fraction of cancerous cells, CAPE plus oxaliplatin: decrease in the survival fraction
